Measured values taken from patent US7338932B2, “Methods of modulating functions of polypeptide GalNAc-transferases and of screening test substances to find agents herefor, pharmaceutical compositions comprising such agents and the use of such agents for preparing medicaments” (Glycozym APS, priority 2000, dated 2008).

Experiments:
[1] = system: wild type CHO/MUC1sol-cloneC4; experiment: Secretion of MUC1, western blot of medium; type: cell-based, Chinese Hamster; settings: 1-2 mM; compared to control treated or non-treated cells
Experimental: In order to characterize the secreted MUC1 product SDS-PAGE western blot analysis of harvested culture medium of confluent cultures were performed. Ten to twenty μL culture supernatant was analysed directly or treated with 0.1 U/mL neuraminidase (C. Perfringes VI, Sigma) for 30-60 min at 37° C. Samples were mixed with SDS sample buffer, reduced with DTT, and run on precast 4-20% gels (Biorad). As shown in FIG. 9 anti-MUC1 antibodies detected two forms of MUC1 in the medium; a low molecular weight form migrating as 130-140 kd corresponding to unglycosylated product, and a high molecular weight form migrating above 250 kd. The high molecular weight form was sensitive to neuraminidase treatment as evidenced by a marked shift and retardation in migration. […]
Because GalNAcα-benzyl exerts separate effects on O-glycan processing and mucin expression, the use of the novel selective inhibitor of mucin expression, GalNAcβ-benzyl, allow analysis of mucin expression and secretion in different cell line models. […] Most human adenocarcinoma cell lines express and secret mucins and analysis with antibodies to detect protein expression or probes to detect mRNA can reveal the types and quantities of mucins. […] The inhibitory effect on mucin secretion can be quantified by a number of assays known to the skilled in the art including western blot, ELISA, gelfiltration, immunocapture, and other assays.

[2] = target: T1, secreted soluble GalNAc-T4 (sT4) (Homo sapiens, UniProt Q8N4A0); experiment: Direct binding ELISA to GalNAc-MUC1 glycopeptide, competitive inhibition, sT4
T1 construct: using the GalNAc-T4-sol construct that encodes residues 32-578 inserted into pT7T3U19; 6xHis (N); thrombin cleavage site (N); T7 tag (N); made in house; host or cells: High Five insect cells (baculovirus)
T1 sequence (Q8N4A0 32-578): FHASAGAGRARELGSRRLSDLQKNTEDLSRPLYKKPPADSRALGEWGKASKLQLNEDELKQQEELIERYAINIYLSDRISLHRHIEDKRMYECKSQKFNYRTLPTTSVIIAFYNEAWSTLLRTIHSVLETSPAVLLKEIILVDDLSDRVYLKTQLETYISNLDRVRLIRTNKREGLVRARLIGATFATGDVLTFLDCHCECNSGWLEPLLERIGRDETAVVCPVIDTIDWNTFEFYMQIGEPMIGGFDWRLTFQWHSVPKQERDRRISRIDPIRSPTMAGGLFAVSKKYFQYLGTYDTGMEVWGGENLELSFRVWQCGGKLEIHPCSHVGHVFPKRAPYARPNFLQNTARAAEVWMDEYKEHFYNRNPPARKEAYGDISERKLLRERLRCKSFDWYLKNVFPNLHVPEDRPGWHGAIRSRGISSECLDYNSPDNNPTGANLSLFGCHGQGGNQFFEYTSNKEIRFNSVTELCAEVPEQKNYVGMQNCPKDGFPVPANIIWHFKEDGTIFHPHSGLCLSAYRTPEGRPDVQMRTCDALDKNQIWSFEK
Experimental: (§1) Protein biotinylation was made as previously reported^62. The pH of 1 ml purified protein (0.3 mg/ml) in PBS was adjusted to pH 9 with 1 M NaOH and 40 μl N-hydroxy-succinimidobiotin (Sigma) dissolved in DMF (10 mg/ml) was added. The solution was mixed end-over-end for 2 hours at room temperature, and dialyzed three times against PBS and an equal volume of glycerol was added. The biotinylated proteins were stored at −20° C. in 50% glycerol until use.
(§2) Direct binding ELISA assay was developed as follows: Polystyrene microtiter plates (Maxisorb, Nunc, Denmark) were coated with peptides or enzymatically glycosylated glycopeptides in PBS overnight at 4° C. Plates were washed and blocked with 0.1% Tween20 and 0.2% BSA in PBS for 1 h at room temperature, followed by incubation with biotinylated proteins in PBS with 0.05% Tween20 for 2 h at room temperature. After four washes with PBS, plates were incubated with 1:2,000 dilution streptavidin-HRP (Sigma) in PBS for 30 min at room temperature and washed four times with PBS. Development was performed with 0.5 mg/ml o-phenylenediamine and 0.02% H2O2 at room temperature for 15 min, and reaction stopped by adding 100 μl/well of 0.5 N H2SO4. Competitive inhibition assays were done at end-point titers of GalNAc-transferase proteins with one hour preincubations with inhibitor.
(§3) In binding studies using lectins without biotinylation antibodies to the HIS-tag and the T7-tag, or in some experiments antibodies raised to GalNAc-T2 and -T4 enzymes were used to detect binding.

GalNAc-T4 = target: T2, GalNAc-T4 (Homo sapiens, UniProt Q8N4A0); experiment: Inhibition of glycosylation dependent (GalNAc-glycopeptide) activity of GalNAc-T4, MALDI-TOF time-course; type: biochemical; settings: 10 mM benzyl sugar
T2 construct: using the GalNAc-T4-sol construct that encodes residues 32-578 inserted into pT7T3U19; made in house; host or cells: High Five insect cells (baculovirus, pAcGP67)
T2 sequence (Q8N4A0 32-578): as above
Experimental: MALDI-TOF time-course in terminal reactions were performed in reactions of 25 μl containing 2.5 nmol acceptor (glyco)peptide, 40 nmol UDP-GalNAc, and 0.4 μg GalNAc-T4. Sampling of reactions (1 μl) were purified by nano-scale reversed-phase chromatography (Poros R3, PerSeptive Biosystem) and applied directly to the probe with matrix (41). The amount of GalNAc-transferase added was adjusted so that the reaction with the appropriate peptide was near completion in six hours. Reactions were incubated at 37° C. in a shaker bath. At times 0, 2 hours, and 16 hours a 1 μl aliquot was taken and purified. Mass spectra were acquired on either Voyager-DE mass spectrometer equipped with delayed extraction (Perseptive Biosystem Inc.). The matrix used was 2,5-dihydroxybenzoic acid (10 mg/ml, Hewlett-Packard) dissolved in a 2:1 mixture of 0.1% trifluoroacetic acid in 30% aqueous acetonitrile (Rathburn Ltd.).
Quantification of purified proteins was done by Coomassie stained SDS-PAGE and titration of immunoreactivity with the monoclonal antibody, UH6(4G2) (8). […] Wild-type GalNAc-T4 and mutant GalNAc-T4, GalNAc-T4^459H, were analysed with unglycosylated peptides (represented by PSGL-1) or GalNAc glycosylated glycopeptides (represented by GalNAc3TAP25V21) in reactions of 25 μl containing 2.5 nmol acceptor (glyco)peptide, 40 nmol UDP-GalNAc, and 0.4 μg GalNAc-T4. Time-course assays were motioned by MALDI-TOF. Sampling of reactions (1 μl) were purified by nano-scale reversed-phase chromatography (Poros R3, PerSeptive Biosystem) and applied directly to the probe with matrix. Evaluation of inhibition of the glycopeptide specificity of wild-type GalNAc-T4 with free sugars was performed to establish if the lectin domain recognized carbohydrate. […] Further, analysis was performed with 10 mM α-D-GalNAc-1-benzyl, αGlcNAc-benzyl, and fully occupied GalNAc-glycopeptide, GalNAc6TAP25, at 5 mM.

[3] = target: T3, secreted soluble GalNAc-T2 (sT2) (Homo sapiens, UniProt Q10471); experiment: Direct binding ELISA to GalNAc-MUC1 glycopeptide, competitive inhibition, sT2
T3 construct: HIS-tagged secreted human GalNAc-T2 and -T4 were prepared from pAC-GP67-T2-sol and pAC-GP67-T4-sol cDNA; 6xHis (N); thrombin cleavage site (N); T7 tag (N); made in house; host or cells: High Five insect cells (baculovirus)
T3 sequence (Q10471 52-571 limits assumed): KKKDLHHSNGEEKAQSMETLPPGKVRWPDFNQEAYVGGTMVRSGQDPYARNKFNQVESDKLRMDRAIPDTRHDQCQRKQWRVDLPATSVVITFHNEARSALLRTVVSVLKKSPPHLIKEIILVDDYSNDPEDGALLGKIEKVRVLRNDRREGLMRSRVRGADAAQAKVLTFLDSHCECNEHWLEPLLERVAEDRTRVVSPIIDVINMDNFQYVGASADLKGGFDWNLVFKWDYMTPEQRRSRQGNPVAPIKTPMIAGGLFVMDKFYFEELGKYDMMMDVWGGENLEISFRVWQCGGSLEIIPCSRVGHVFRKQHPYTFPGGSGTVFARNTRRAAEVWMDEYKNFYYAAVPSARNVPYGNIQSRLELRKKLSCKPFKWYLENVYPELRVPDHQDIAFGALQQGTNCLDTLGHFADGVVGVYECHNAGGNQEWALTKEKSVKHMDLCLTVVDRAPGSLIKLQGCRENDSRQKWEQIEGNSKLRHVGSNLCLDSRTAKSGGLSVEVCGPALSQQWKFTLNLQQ
Experimental: as §1, §2, §3

[4] = target: T4, GalNAc-T4 lectin domain (T4ld) (Homo sapiens, UniProt Q8N4A0); experiment: Direct binding ELISA to GalNAc-MUC1 glycopeptide, competitive inhibition, T4ld
T4 construct: made in house; host or cells: High Five insect cells (baculovirus, pAcGP67-A)
T4 sequence (Q8N4A0 405-578): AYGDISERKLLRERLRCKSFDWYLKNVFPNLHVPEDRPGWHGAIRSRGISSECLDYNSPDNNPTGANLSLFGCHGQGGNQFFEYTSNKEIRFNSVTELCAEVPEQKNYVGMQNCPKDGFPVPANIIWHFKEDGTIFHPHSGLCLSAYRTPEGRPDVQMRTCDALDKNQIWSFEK
Experimental: as §1, §2, §3

Row | SMILES | Secreted MUC1 in medium [1] | Inhibition of GalNAc-T4 lectin binding ([2]; FIG. 7, ELISA plates with GalNAc-Muc1) | IC50 ([2]; binding to GalNAc-MUC1 glycopeptide) | Inhibition of glycosylation dependent specificity of GalNAc-T4 (GalNAc-T4) | IC50 [3] | IC50 [4]
1 | CC(=O)N[C@H]1[C@@H](OCc2ccccc2)O[C@H](CO)[C@H](O)[C@@H]1O [GalNAcα-benzyl] | inhibition of secreted MUC1 | – | – | – | – | –
2 | CC(=O)N[C@H]1[C@@H](OCc2ccccc2)O[C@H](CO)[C@@H](O)[C@@H]1O [GlcNAcα-benzyl] | – | no inhibition | > 100 mM | did not inhibit | > 100 mM | > 100 mM
